Source: publication PMC9095466 (Nature, 2022)
Values joined by “and” are separate entries in the source; they are usually repeats but may differ in a detail not shown here. Equal entries are not always repeated.

Assays:
[1] = Cytotoxicity CC50 in Calu-3 lung epithelial cells; type: cell-based, human; conditions: human; Calu-3 lung epithelial cells, n = 2; read-out: CC50 in Calu-3 cells
SARS-CoV-2 (VIDO) = assay: microbe, parasite or virus in culture; type: cell-based; conditions: colonoids pretreated 3 h with 100 nM, infected 3 days, vs DMSO-treated
human cathepsin L = biological target: T1, human cathepsin L (Homo sapiens, UniProt P07711); assay: Protease selectivity, Ki on protease; type: biochemical; conditions: mean ± s.d., max concentration 10 µM; read-out: Ki Cathepsin L
T1 construct: purchased Bio-Techne
T1 sequence (P07711 114-333): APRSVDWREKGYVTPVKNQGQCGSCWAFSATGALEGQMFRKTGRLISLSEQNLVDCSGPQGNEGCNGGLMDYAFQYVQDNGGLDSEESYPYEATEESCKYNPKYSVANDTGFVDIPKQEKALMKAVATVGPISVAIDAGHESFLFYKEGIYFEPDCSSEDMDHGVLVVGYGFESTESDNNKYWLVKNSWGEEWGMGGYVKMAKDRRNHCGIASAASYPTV

Recombinant human DESC1 = biological target: T2, Recombinant human DESC1 (Homo sapiens, UniProt Q9UL52); assay: Protease selectivity, Ki on recombinant protease; type: biochemical; conditions: mean ± s.d., max concentration 10 µM; read-out: Ki DESC1
T2 construct: made in house
T2 sequence (Q9UL52 1-423): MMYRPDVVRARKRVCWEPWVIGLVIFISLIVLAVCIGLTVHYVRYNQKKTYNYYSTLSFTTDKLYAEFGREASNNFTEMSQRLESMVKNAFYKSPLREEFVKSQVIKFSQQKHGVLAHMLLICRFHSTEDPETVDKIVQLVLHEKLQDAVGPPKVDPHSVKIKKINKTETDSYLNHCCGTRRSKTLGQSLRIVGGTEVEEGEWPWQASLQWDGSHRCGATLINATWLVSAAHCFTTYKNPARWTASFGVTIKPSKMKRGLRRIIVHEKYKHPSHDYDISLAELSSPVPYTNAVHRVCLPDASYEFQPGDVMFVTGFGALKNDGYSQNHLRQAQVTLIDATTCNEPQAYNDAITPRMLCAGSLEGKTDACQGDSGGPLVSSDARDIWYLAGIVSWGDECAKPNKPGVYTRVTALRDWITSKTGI

[2] = test system: SARS-CoV-2 lineage B strain (VIDO); assay: microbe, parasite or virus in culture; type: cell-based
Recombinant human furin = biological target: T3, Recombinant human furin (Homo sapiens, UniProt P09958); assay: Protease selectivity, Ki on recombinant protease; type: biochemical; conditions: mean ± s.d., max concentration 10 µM; read-out: Ki Furin
T3 construct: purchased Bio-Techne
T3 sequence (P09958 108-794): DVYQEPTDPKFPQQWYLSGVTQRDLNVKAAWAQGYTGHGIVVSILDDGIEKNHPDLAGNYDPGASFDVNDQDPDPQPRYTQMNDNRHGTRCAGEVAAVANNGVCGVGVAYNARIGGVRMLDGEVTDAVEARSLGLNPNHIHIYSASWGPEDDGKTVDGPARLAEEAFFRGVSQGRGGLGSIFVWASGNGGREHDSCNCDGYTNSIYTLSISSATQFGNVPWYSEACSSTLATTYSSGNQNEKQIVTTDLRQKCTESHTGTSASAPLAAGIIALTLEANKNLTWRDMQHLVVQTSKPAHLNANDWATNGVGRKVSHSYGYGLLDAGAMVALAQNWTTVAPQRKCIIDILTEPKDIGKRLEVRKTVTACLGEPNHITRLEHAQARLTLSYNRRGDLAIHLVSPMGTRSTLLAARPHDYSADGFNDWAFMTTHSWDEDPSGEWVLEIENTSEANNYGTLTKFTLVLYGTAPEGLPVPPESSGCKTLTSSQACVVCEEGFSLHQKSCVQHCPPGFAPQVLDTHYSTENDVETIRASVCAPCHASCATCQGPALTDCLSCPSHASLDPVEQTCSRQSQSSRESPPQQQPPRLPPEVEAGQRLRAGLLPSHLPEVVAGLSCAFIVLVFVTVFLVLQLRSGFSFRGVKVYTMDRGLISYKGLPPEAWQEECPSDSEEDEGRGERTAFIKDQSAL

human TMPRSS2 = human TMPRSS2 (Homo sapiens, UniProt O15393); assay: cell-based
Chain of human TMPRSS2 (O15393 whole entry): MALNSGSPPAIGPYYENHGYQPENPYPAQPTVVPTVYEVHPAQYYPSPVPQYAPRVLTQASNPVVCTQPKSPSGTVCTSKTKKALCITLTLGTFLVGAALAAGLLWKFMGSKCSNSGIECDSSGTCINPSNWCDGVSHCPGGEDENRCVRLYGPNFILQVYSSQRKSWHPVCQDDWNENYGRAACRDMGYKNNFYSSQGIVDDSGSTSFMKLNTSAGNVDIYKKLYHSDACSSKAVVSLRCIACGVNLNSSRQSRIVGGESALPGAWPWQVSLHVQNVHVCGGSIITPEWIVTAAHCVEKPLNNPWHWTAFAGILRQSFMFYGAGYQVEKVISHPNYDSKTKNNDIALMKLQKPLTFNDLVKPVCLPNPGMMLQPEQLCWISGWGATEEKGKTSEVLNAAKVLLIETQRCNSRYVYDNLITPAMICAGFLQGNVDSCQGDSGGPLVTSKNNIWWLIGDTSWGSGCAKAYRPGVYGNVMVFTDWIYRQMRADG

CS(=O)(=O)NC(CCC(N)=O)C(=O)NC(Cc1ccccc1)C(=O)NC(CCCNC(=N)N)C(=O)c1nc2ccccc2s1 (stereo not shown) [Compound N-0385, Ms-QFR-kbt]
CC50 at 24 h [1]: 3470 µM | inhibition at 0.1 µM (SARS-CoV-2 (VIDO); Severe acute respiratory syndrome coronavirus 2, read-out: inhibition of SARS-CoV-2 infection in colonoids): > 99% | inhibition of SARS-CoV-2 infection in colonoids (SARS-CoV-2 (VIDO)): complete inhibition | Ki (human cathepsin L): 6.29 ± 3.61 µM | Ki (Recombinant human DESC1): 0.0266 ± 0.0088 µM | Nucleocapsid ([2]; Figure 2a, two replicates, DMSO control about 91-94): 1.14 and 1.542 | dsRNA ([2]; Figure 2a, two replicates, DMSO control about 93-95): 2.011 and 2.808 | EC50 ([2]; Severe acute respiratory syndrome coronavirus 2, Calu-3, read-out: SARS-CoV-2 VIDO Nucleocapsid EC50 ± SE): 0.0028 ± 0.0014 µM | inhibition at 0.1 µM ([2]; Severe acute respiratory syndrome coronavirus 2, Calu-3, read-out: inhibition of SARS-CoV-2 infection): > 99% | Figure 2b dose-response, Mean ([2]; log [C] (nM) 0.20412): 56.2346 | Figure 2b dose-response, Mean ([2]; log [C] (nM) 0.90309): 18.4653 | Figure 2b dose-response, Mean ([2]; log [C] (nM) 1.60206): 7.161 | Figure 2b dose-response, Mean ([2]; log [C] (nM) 2.30103): 5.446 | Figure 2b dose-response, Mean ([2]; log [C] (nM) 3): 1.469 | Figure 2b dose-response, Mean ([2]; log [C] (nM) -0.49485): 74.438 | Figure 2b dose-response, Mean ([2]; log [C] (nM) -1.19382): 85.6866 | Ki (Recombinant human furin): > 10 µM | TMPRSS2 activity (%) (human TMPRSS2; Figure 1B, single experiments N1-N3): 12.847% and 18.5887% and 21.0267% | inhibition at 0.01 µM (human TMPRSS2; Vero C1008, 10 nM compound, 24 h, vs untreated/vehicle TMPRSS2-expressing Vero E6 cells, read-out: inhibition of TMPRSS2 activity (reduction of substrate proteolysis)): 83%
